In patent publication US8822491B2, “Methods and compositions for treating β-thalassemia and sickle cell disease” (Academia Sinica, priority 2011, dated 2014):
Where two headings read alike, the source gives them in different places.

How the values were obtained:
Format in all cases: cell-based
Bcl11a = experiment: Real-time RT-PCR of Bcl11a expression in primary human erythroid cultures; conditions: different concentrations of STO-609, 3 days, FIG. 7C
Protocol: (§1) Primary human erythroid cultures were treated with 0.25 μM of compound A, and the relative expression levels of different transcription factors were then determined by real-time RT-PCR analysis. The white bars indicate the expression levels of mock control set as 1. The black bars are the relative expression levels in compound A-treated cells.
(§2) Mouse erythroleukemic (MEL) cells, an adult erythroid cell line (Friend, et al. (1971) Proc Natl Acad Sci USA 68:378-82), were maintained in DMEM medium (Gibco) supplemented with 10% FBS and 1% penicillin-streptomycin, in 37° C. chamber under a 5% CO2 humidified atmosphere. For establishing stable cell lines, transfection of the reporter pmLAR-Gp-DsRed-Bp-d2EGFP into MEL cells was carried out using the Neon™ transfection system (Invitrogen). 2×10^6 MEL cells were transfected with 5 μg of the plasmid. Following microporation, the MEL cells were seeded in 10 ml antibiotics-free DMEM for 24 hrs and selected with […] of neomycin for one month. […]
(§3) Total RNAs were isolated with use of the RNAspin Mini kit (GE Healthcare). cDNA synthesis was carried out using SuperScript II reverse transcriptase (Invitrogen). Quantitative RT-PCR was performed using the SYBR Green PCR Master Mix (Applied Biosystems) and ABI 7500 real-time System. All data were analyzed after normalization to the expression level of the mouse or human […] gene.

β globin mRNA = experiment: Real time RT-PCR of β globin mRNA in primary human erythroid cultures; design: dose or concentration left out as unconfirmed; conditions: STO-609, 3 days, FIG. 7A
Protocol: as §2, with “month. The primary human erythroid culture was initiated by maintaining the purified mononuclear cells in SFEM medium with 1× cc100 cytokine mix (StemSpan) for 7 days. The cells were then kept in the differentiation medium (SFEM with 20 ng/ml SCF, 1 U/ml EPO, 5 ng/ml IL-3, 2 micromolar dexamethasone) for another 7 days at a density of 0.1−1×10^6 cells/ml.” for “month.”
as §3

c-Myb = experiment: Real-time RT-PCR of c-Myb expression in primary human erythroid cultures; conditions: different concentrations of STO-609, 3 days, FIG. 7D
Protocol: Dosage effects of STO-609 on the proliferation and γ/β globin gene expression of differentiated human erythroid progenitor cells were analyzed as described for compounds A-F. The differentiated primary cultured erythroid cells were treated with different concentrations of STO-609 for 3 days. (A) Relative induction of β (white bars) and γ globin mRNAs (black bars) was determined by real time RT-PCR analysis. The proliferation curve of the cells is shown with the mock control being 100%. (B) Relative expression levels of NF-E4 were determined by real time RT-PCR analysis and shown by the grey bars. (C) Relative expression levels of Bcl11a in response to treatments with different concentrations of STO-609 are shown (white bars). (D) Relative expression levels of c-Myb in cells treated with different concentrations of STO-609 are shown (black bars). The mock control is set as 1. […]
as §3

NF-E4 = experiment: Real-time RT-PCR of NF-E4 expression in primary human erythroid cultures; conditions: different concentrations of STO-609, 3 days, FIG. 7B
Protocol: as §1, §2, §3

γ globin mRNA = experiment: Real time RT-PCR of γ globin mRNA in primary human erythroid cultures; design: expression level of the fetal γ globin gene: dose or concentration left out as unconfirmed
Protocol: (§4) Mouse erythroleukemic (MEL) cells, an adult erythroid cell line (Friend, et al. (1971) Proc Natl Acad Sci USA 68:378-82), were maintained in DMEM medium (Gibco) supplemented with 10% FBS and 1% penicillin-streptomycin, in 37° C. chamber under a 5% CO2 humidified atmosphere. For establishing stable cell lines, transfection of the reporter pmLAR-Gp-DsRed-Bp-d2EGFP into MEL cells was carried out using the Neon™ transfection system (Invitrogen). 2×10^6 MEL cells were transfected with 5 μg of the plasmid. Following microporation, the MEL cells were seeded in 10 ml antibiotics-free DMEM for 24 hrs and selected with […] of neomycin for one month. The primary human erythroid culture was initiated by maintaining the purified mononuclear cells in SFEM medium with 1× cc100 cytokine mix (StemSpan) for 7 days. The cells were then kept in the differentiation medium (SFEM with 20 ng/ml SCF, 1 U/ml EPO, 5 ng/ml IL-3, 2 micromolar dexamethasone) for another 7 days at a density of 0.1−1×10^6 cells/ml. The cells were treated with chemical compound at day 7 post-differentiation and then harvested for further analysis after 3 days of compound treatment.
as §3

[1] = test system: human erythroid progenitor cells; experiment: Cell proliferation (alamar Blue) of differentiated primary human erythroid cells; conditions: for IC50: Erythroid progenitor cell, 72 h, read-out: IC50 (concentration at which the cell proliferation rate is reduced by 50%)
Protocol: FIG. 3 illustrates induction of the endogenous globin genes in the primary culture of human erythroid progenitor cells by compound A. (A) Dosage effect of compound A in the differentiated human erythroid progenitor cells. The differentiated primary cultured cells were treated with different concentrations of compound A for 3 days. Total mRNA was extracted, and relative induction of the β and γ globin mRNAs was determined by real time RT-PCR analysis. The cell proliferation abilities were determined with use of alamar Blue reagent (mock control as 100%). The white bars indicated the relative expression levels of β-globin. The gray bars represent the relative levels of γ-globin mRNA. (B) Comparison of γ and β globin gene expression patterns in primary erythroid cultured cells treated with different fetal globin inducing agents. […] The total RNAs were then isolated for real time RT-PCR analysis. Relative induction of the β globin gene (white bars) and the γ globin gene (grey bars) was then determined.
IC50 values are the concentrations of the individual compounds at which the cell proliferation rates are reduced by 50%.
as §4

[2] = test system: mouse embryonic εy globin mRNA; experiment: Real-time RT-PCR of endogenous embryonic globin mRNA in MEL cells
Protocol: 5×10^4 MEL cells carrying the dual fluorescence reporter were seeded on optical Packard 96-well view plates, treated with […] of the individual compound for 3 days, and primary screened for their DsRed intensity with use of the Wallac Victor3 1420 multilabel counter (Ex: 550/9; Em: 620). The secondary screenings were performed using a digital image detector, Cellomics Arrayscan 3.0 system, which doubly confirmed the intracellular DsRed fluorescence induced by the compound treatment. The endogenous globin gene expression patterns in the positive MEL cells from the primary and secondary screens as well as in compound-treated primary human erythroid cultures were subsequently identified by real time RT-PCR analysis.
as §3

[3] = differentiated human primary erythroid cells, 3 days
[4] = different concentrations of compound A, 3 days, FIG. 3A

`CC(=O)O.O=C(O)c1ccc2c3c1cccc3c(=O)n1c3ccccc3nc21` [STO-609, 7-oxo-7H-benzimidazo[2,1-a]benz[de]isoquinoline-3-carboxylic acid acetate] was tested, and the “expression level of the γ globin gene repressor Bcl11a” value (Bcl11a) was “down-regulated”, the “expression level of the adult β globin gene (elevated?)” value (β globin mRNA) was “but not the adult β globin” and the “transcript of c-Myb” value (c-Myb) was “significantly reduced”. The “transcription of the γ globin gene activator NF-E4” value (NF-E4) was “up-regulation”, the concentration at which the fetal γ globin gene expression was elevated (γ globin mRNA; STO-609, 3 days, FIG. 7A) was no less than 50 µM and the “expression level of the fetal γ globin gene” value (γ globin mRNA; STO-609, 3 days, FIG. 7A) was “elevated”. The “ability to induce fetal γ globin expression” value (γ globin mRNA; survey of compounds with the benzo[de]benzo[4,5]imidazo[2,1-a]isoquinolin-7-one core) was “displays the fetal γ globin-inducting capability”.

In the case of `O=C(O)c1ccc(C(=O)O)c2c(-c3ccc4c(=O)n5c6ccccc6nc5c5ccc(C(=O)O)c3c45)ccc(C(=O)O)c12` [compound A, 8-(3-Carboxy-7-oxo-7H-benzo[de]benzo[4,5]imidazo[2,1-a]isoquinolin-4-yl)-naphthalene-1,4,5-tricarboxylic acid], the IC50 [1, 3] is reported as 0.2 µM, the “proliferation rates of the cells” value [1, 4] is reported as “in reverse relationship with the concentration of compound A” and the “γ-globin induction fold compared to TSA, hydroxyurea and sodium butyrate” value (γ globin mRNA; compound A […] vs TSA 0.33 μM, HU 100 μM, NaB 0.5 mM, 3 days, FIG. 3B) is reported as “highest γ-globin induction fold”. The “relative expression level of the γ globin gene as a function of concentration” value (γ globin mRNA; [4]) was “significantly increased” and the “induction of endogenous mouse embryonic εy globin mRNA expression level” value [2] was “more than 10 fold”.

With `O=c1c2cccc3cccc(c32)c2nc3ccccc3n12` [compound B, Benzo[de]benzo[4,5]imidazo[2,1-a]isoquinolin-7-one] the IC50 [1, 3] was 21.8 µM.

`O=c1c2cccc3c(Cl)ccc(c32)c2nc3ccccc3n12` [compound C, 3-Chloro-benzo[de]benzo[4,5]imidazo[2,1-a]isoquinolin-7-one] gave an IC50 [1, 3] of 75.2 µM.

With `O=C(O)c1ccc2c(=O)n3c4ccccc4nc3c3ccc(C(=O)O)c1c23` [compound F, 7-Oxo-7H-benzo[de]benzo[4,5]imidazo[2,1-a]isoquinoline-3,4-dicarboxylic acid] the IC50 [1, 3] was 103 µM.

`NC(=O)NO` [hydroxyurea] gave an IC50 [1, 3] of 146 µM.

With `CCCC(=O)[O-].[Na+]` [sodium butyrate] the IC50 ([1]; Homo sapiens) was 222 µM.
